# Results as given in patent publication US8980926B2, “2-aminoindole compounds and methods for the treatment of malaria” (Genzyme Corporation, priority 2009, dated 2015).
# pIC50: −log10 of the molar value. Like-named read-outs stand apart in the source and are kept apart here.
# Experiments:
# Erythrocyte lysis = assay type: cell-based; settings: erythrocytes, read-out: Selectivity, Mammalian cytotoxicity (IC50; μM) Eryth. Lysis
# [1] = Mammalian cytotoxicity, kidney epithelial; assay type: cell-based; settings: normal human renal proximal tubule cells; read-out: Selectivity, Mammalian cytotoxicity (IC50; μM) Kidney epithelial
# [2] = Mammalian cytotoxicity, dermal fibroblast; assay type: cell-based; settings: human, normal human dermal fibroblasts (Clonetics #CC-2509); read-out: Selectivity, Mammalian cytotoxicity (IC50; μM) Dermal Fibroblast
# P. falciparum strain 3D7 = assay: In vitro potency against P. falciparum strain 3D7 (SYBR green/DAPI); assay type: cell-based; settings: Plasmodium falciparum; for IC50: read-out: Potency (IC50; nM) Plasmodium spp. Pf 3D7; for pIC50: reductions in parasitemia, read-out: IC50 values
# P. knowlesi strain H1 = assay: In vitro potency against P. knowlesi H1 in Rhesus blood cells (3H-hypoxanthine incorporation); assay type: cell-based; settings: Plasmodium knowlesi, in Macaca mulatta, read-out: Potency (IC50; nM) Plasmodium spp. Pk H1
# Procedure: Selected compounds were tested against P. knowlesi H1 strain parasites cultured in Rhesus blood cells as a surrogate for P. vivax infections using the method of Kocken and coworkers (Kocken, C. H., H. Ozwara, A. van der Wel, A. L. Beetsma, J. M. Mwenda, and A. W. Thomas. 2002. Plasmodium knowlesi provides a rapid in vitro and in vivo transfection system that enables double-crossover gene knockout studies. Infect Immun 70:655-660). Briefly, P. knowlesi were cultured in 2% Rhesus macaque erythrocytes (New England Primate Research Center) in RPMI culture media containing 10% Human O+ serum (Interstate Blood Bank). Schizont stage parasites were purified by floatation in 60% Percoll (GE life sciences) and allowed to reinvade to generate a synchronous population of ring stage parasites. Drug assays were performed by plating ring stage parasites at 0.5% parasitemia in triplicate, in RPMI containing 2.5 μg/ml hypoxanthine. Parasites were incubated for 24 hours with serially diluted test compounds. After 24 hours, thin smears were made to confirm that reinvasion had occurred, 0.5 μCi ^3H-labeled hypoxanthine (Perkin Elmer) were added to each well, and parasites were allowed to progress through S-phase to early schizonts. Cells were then harvested via glass filter plates and ^3H incorporation was measured by scintillation counting. Values were normalized to percentage of controls containing no drug, and IC50 values were generated (GraphPad Prism®).
# [3] = tested on: Plasmodium falciparum strain Dd2; assay: In vitro potency against P. falciparum strain Dd2; assay type: cell-based; settings: read-out: Potency (IC50; nM) Plasmodium spp. Pf Dd2
# P. berghei N-clone = assay: In vivo efficacy against P. berghei in mice (4-day suppressive test, oral); parameters: species or system P. berghei in Swiss Albino mice; settings: for Average Day of Recrudescence: Study Day; for No. Cured: animals cured/group; for Recrudescence (no. animals/total): no parasites on Day 5 but later regressed; for % Suppression Day 5: vs untreated controls
# From the text: Because of ethical issues and costs, the acute P. berghei model in rodents is considered the “gold standard” for assessing anti-malarial efficacy in animal models. This model is adapted from Peters' “4-day suppressive test” (Peters, W. 1987. Chemotherapy and Drug Resistance in Malaria, p. 102-115, 2ed, vol. 1. Academic Press, Orlando, Fla.; Peters, W. 1975. The chemotherapy of rodent malaria, XXII. The value of drug-resistant strains of P. berghei in screening for blood schizontocidal activity. Ann Trop Med Parasitol 69:155-171). All studies were conducted in accordance with the Guide for the Care and Use of Laboratory Animals (National-Research-Council. 1996. Guide for the Care and Use of Laboratory Animals. National Academy Press, Washington, D.C.) and the PHS guidelines. Animals were maintained according to NIH guidelines and were allowed to acclimatize for 1 week prior to the commencement of studies. On Day 0, groups of 4-6-week old female Swiss Albino mice (n=5) were infected by tail vein injection with 0.2 ml heparinized blood diluted to contain 1×10^7 N-clone parasites. The aminoindole analogs were formulated in 1.6% lactic acid mixed sodium salt, 1% Tween 80, 9% ethanol and 20% Cerestar (hydroxypropyl β-cyclodextrin; Wacker Chimie) and were administered by oral gavage. […] Animals in the Control-group received vehicle alone. Dose concentration and frequency of dosing were based upon preliminary tolerability/exposure studies. On Day 4 post-infection (5th day of assay) blood was collected by tail-nick, and thin smear microscope slides were prepared and stained using Diff Quick®. Parasitized erythrocytes were counted and compared with the total number of erythrocytes per microscopic field to determine the percent parasitemia. A minimum of 350 erythrocytes were counted. Animals showing no detectable parasites on Day 4 were examined every 2-3 days to determine whether cure was sterile. Animals with no detectable parasites 28 days after cessation of dosing (Study Day 33) were considered cured.
# hERG = molecular target: T1, hERG (Homo sapiens, UniProt Q12809); assay: hERG in Chinese hamster ovary cells; assay type: cell-based
# T1 construct: expressed in transfected cells; host or cells: Chinese hamster ovary cells (from the earlier reading's assay name)
# P. berghei ANKA strain = assay: In vitro potency against P. berghei ANKA; assay type: cell-based; settings: Plasmodium berghei, read-out: Potency (IC50; nM) Plasmodium spp. Pb ANKA
# malaria = assay: In vivo efficacy in an animal (rodent) model of malaria (FIGS. 1, 2); settings: FIG. 1
# [4] = tested on: P. berghei ANKA strain GFP MRA-865; assay: In vivo efficacy against P. berghei ANKA GFP in the humanized murine system; parameters: species or system P. berghei in mice; settings: b.i.d.
# [5] = tested on: P. falciparum Pf3D7^0087/N9; assay: In vivo efficacy against P. falciparum in humanized mice; settings: b.i.d.
# Procedure: Briefly, groups of 3 animals were infected on Day 0 with 2×10^7 P. falciparum parasites and were treated orally once per day for 4 days with 5, 25 and 100 mg/kg/day formulated as described above beginning on Day 3 post infection. In parallel, groups of 3 animals were infected on Day 0 with 1×10^7 parasites on Day 0 and received the same doses beginning 1 hr after infection. Parasitemia was assessed by FACS as previously described (Jiménez-Díaz, M.-B., et al. 2009. Cytometry Part A 75:225-235. In the same humanized murine system, efficacy was also tested against P. berghei, with animals infected on Day 0 (Jimenez-Diaz, M. B., et al. 2005. Cytometry A 67:27-36). Results are shown in Table 5.
# T1 sequence (Q12809 whole entry): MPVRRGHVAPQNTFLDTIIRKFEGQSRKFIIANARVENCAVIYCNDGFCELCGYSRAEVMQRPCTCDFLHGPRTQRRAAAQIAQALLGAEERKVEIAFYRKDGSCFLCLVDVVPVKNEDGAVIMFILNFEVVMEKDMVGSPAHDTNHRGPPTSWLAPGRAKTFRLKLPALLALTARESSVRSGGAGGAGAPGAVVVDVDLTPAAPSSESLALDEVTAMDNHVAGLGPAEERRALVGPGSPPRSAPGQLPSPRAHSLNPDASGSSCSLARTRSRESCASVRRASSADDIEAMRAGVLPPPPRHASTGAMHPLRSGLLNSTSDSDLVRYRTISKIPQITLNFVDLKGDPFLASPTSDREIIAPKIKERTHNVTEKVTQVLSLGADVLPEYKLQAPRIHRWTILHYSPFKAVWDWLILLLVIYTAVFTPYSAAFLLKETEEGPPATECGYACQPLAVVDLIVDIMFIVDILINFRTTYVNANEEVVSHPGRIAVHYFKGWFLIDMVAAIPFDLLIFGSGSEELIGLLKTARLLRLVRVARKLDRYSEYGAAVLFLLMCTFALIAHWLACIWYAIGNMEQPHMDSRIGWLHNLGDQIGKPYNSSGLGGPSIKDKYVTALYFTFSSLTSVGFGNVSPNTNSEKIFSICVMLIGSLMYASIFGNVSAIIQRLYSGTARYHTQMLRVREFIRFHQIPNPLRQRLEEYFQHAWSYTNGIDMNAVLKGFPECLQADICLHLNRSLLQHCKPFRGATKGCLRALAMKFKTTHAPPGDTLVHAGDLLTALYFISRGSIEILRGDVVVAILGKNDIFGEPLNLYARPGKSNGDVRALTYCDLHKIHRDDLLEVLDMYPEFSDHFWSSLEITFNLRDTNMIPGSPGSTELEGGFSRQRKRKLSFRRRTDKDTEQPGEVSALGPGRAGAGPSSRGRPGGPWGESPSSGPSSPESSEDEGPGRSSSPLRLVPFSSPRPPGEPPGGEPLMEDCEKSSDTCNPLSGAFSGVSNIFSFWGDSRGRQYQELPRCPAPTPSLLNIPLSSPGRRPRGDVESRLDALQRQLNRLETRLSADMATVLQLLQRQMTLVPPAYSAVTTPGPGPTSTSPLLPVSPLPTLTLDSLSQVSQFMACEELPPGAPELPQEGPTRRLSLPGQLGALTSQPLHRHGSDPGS
smiles,measurement,setting,value
NC1=Nc2ccc(Cl)cc2C1(O)c1ccccc1 (centres unmarked) [Compound 1],IC50,Erythrocyte lysis,> 155 µM
same,IC50,[1],> 242 µM
same,IC50,[2],> 242 µM
same,IC50,P. falciparum strain 3D7,200 nM
same,pIC50,P. falciparum strain 3D7,6.30 to 7.00
same,IC50,P. knowlesi strain H1,336 nM
same,IC50,[3],285 nM
same,Average Day of Recrudescence,P. berghei N-clone; 50 mg/kg/day b.i.d. p.o.,13 days
same,No. Cured,P. berghei N-clone; 50 mg/kg/day b.i.d. p.o.,0/5
same,Recrudescence (no. animals/total),P. berghei N-clone; 50 mg/kg/day b.i.d. p.o.,5/5
same,% Suppression Day 5,P. berghei N-clone; 50 mg/kg/day b.i.d. p.o.,100%
same,"Selectivity, hERG (μM) CHO",hERG,>25 µM
same,IC50,P. berghei ANKA strain,1560 nM
same,in vivo efficacy (treatment of malaria),"malaria; 50 mg/kg dose, IP administration for four days",effectively treated malaria
same,"in vivo efficacy, dose dependence",malaria; IP administration for four days at various doses,dose-response relationship was observed
CCOc1ccc(F)cc1[C@@]1(O)C(N)=Nc2ccc(Cl)cc21 (stereo in doubt) [Compound 267],IC50,Erythrocyte lysis,> 125 µM
same,IC50,[1],> 195 µM
same,IC50,[2],> 195 µM
same,IC50,P. falciparum strain 3D7,28 nM
same,pIC50,P. falciparum strain 3D7,7.00 to 9.00
same,IC50,P. knowlesi strain H1,26 nM
same,IC50,[3],65 nM
same,Average Day of Recrudescence,P. berghei N-clone; 100 mg/kg/day b.i.d. p.o.,14 days
same,No. Cured,P. berghei N-clone; 100 mg/kg/day b.i.d. p.o.,0/5
same,Recrudescence (no. animals/total),P. berghei N-clone; 100 mg/kg/day b.i.d. p.o.,2/4
same,% Suppression Day 5,P. berghei N-clone; 100 mg/kg/day b.i.d. p.o.,95%
same,Average Day of Recrudescence,P. berghei N-clone; 200 mg/kg/day b.i.d. p.o.,12 days
same,No. Cured,P. berghei N-clone; 200 mg/kg/day b.i.d. p.o.,3/5
same,Recrudescence (no. animals/total),P. berghei N-clone; 200 mg/kg/day b.i.d. p.o.,2/5
same,% Suppression Day 5,P. berghei N-clone; 200 mg/kg/day b.i.d. p.o.,100%
same,ED50 P. berghei N-clone,P. berghei N-clone; b.i.d.,32 mg/kg/day
same,ED90 P. berghei N-clone,P. berghei N-clone; b.i.d.,68 mg/kg/day
same,cures,P. berghei N-clone; doses of 100-200 mg/kg/day,able to affect cures
same,ED50 P. berghei N-clone,P. berghei N-clone; t.i.d.,35 mg/kg/day
same,ED90 P. berghei N-clone,P. berghei N-clone; t.i.d.,58 mg/kg/day
same,ED50 P. berghei ANKA strain GFP MRA-865,[4],19 mg/kg/day
same,ED90 P. berghei ANKA strain GFP MRA-865,[4],30 mg/kg/day
same,"Selectivity, hERG (μM) CHO",hERG,36.6 µM
same,ED50 P. falciparum Pf3D7^0087/N9,[5],40 mg/kg/day
same,ED90 P. falciparum Pf3D7^0087/N9,[5],74 mg/kg/day
same,IC50,P. berghei ANKA strain,331 nM
